# Assay results as given in article PMC10059999, “Assessment of Lipophilicity Parameters of Antimicrobial and Immunosuppressive Compounds” (Molecules, 2023).
# Read-outs that look alike come from different tables or passages of the source.
# Legend:
# [1] = RP-TLC determination of chromatographic lipophilicity parameter RMW (Soczewiński–Wachtmeister extrapolation to pure water); type: physicochemical; details: for RMW values, range: range over all plates (RP2F254, RP18F254, RP18WF254) and all mobile phases
# Experimental: Thin-layer chromatography aluminum plates (20 cm × 20 cm, 0.25 mm) precoated with silica gel RP18F254, and glass plates coated with silica gel RP18WF254 (20 cm × 10 cm) and silica gel RP2F254 (10 cm × 10 cm) were obtained from Merck (Darmstadt, Germany).
# The chromatographic analysis was carried out according to the procedure described earlier on RP-TLC plates (RP2F254, RP18F254, RP18WF254) as a stationary phase using three different mobile phases. Five microliters of standard solutions of analytes were spotted onto the chromatographic plates. The chromatographic chamber 20 cm × 10 cm (Camag, Switzerland) was saturated with the mobile phase vapors for 20 min. The mobile phases were prepared by mixing appropriate organic modifiers (ethanol, propan-2-ol, acetonitrile) and water in different volume compositions. The content of the organic modifier in the mobile phase used was changed in the step of 5% (v/v) in the range of 30–90% v/v. Thus, the mobile phases used consisted of a suitable organic solvent and water mixed in the following volume compositions: 30:70; 35:65; 40:60; 45:55; 50:50; […]; 60:40; 65:35; 70:30; 75:25; 80:20; 85:15 and 90:10. Chromatograms were developed at room temperature (21 ± 1 °C) to the solvent distance of 7 cm. Next, the chromatograms were dried for 24 h at (21 ± 1 °C) in a fume cupboard. The detection of the studied compounds was carried out under a UV lamp at 254 nm (Camag, Muttenz, Switzerland). The values of Rf (retardation factor) are the average values of three independent measurements in each case.
# [2] = design: method as in DrugBank; details: n-octanol-water, ref DrugBank, cited from earlier work
# [3] = design: method as in ChemSpider / selleckchem.com; details: ref ChemSpider / selleckchem.com, cited from earlier work; for Solubility in Water / logS: aqueous solubility
# [4] = RP2F254 plates, acetonitrile-water mobile phase
# [5] = RP2F254 plates, ethanol–water mobile phase
# [6] = RP2F254 plates, propan-2-ol-water mobile phase
# [7] = RP18F254 plates, acetonitrile-water mobile phase
# [8] = RP18F254 plates, ethanol–water mobile phase
# [9] = RP18F254 plates, propan-2-ol-water mobile phase
# [10] = RP18WF254 plates, acetonitrile-water mobile phase
# [11] = RP18WF254 plates, ethanol–water mobile phase
# [12] = RP18WF254 plates, propan-2-ol-water mobile phase
Compound,"RMW [1, 4]","RMW [1, 5]","RMW [1, 6]","RMW values, range on RP2F254 ([1]; RP2F254 plates, range over the three mobile phases)","RMW [1, 7]","RMW [1, 8]","RMW [1, 9]","RMW [1, 10]","RMW [1, 11]","RMW [1, 12]","RMW values, range [1]",logPexp (Experimental Value) [2],logPexp (Experimental Value) ([2]; listed as ceftazidime),Solubility in Water [3],logS [3],pKa (Strongest Acidic) [3],pKa (Strongest Basic) [3]
"CC(C)(O/N=C(\C(=O)N[C@@H]1C(=O)N2C(C(=O)[O-])=C(C[n+]3ccccc3)CS[C@H]12)c1csc(N)n1)C(=O)O [Ceftazidime, ceftazidime]",−0.0357,−0.6643,−0.3642,−0.0357 to −0.6643,0.1462,−2.9545,0.4691,0.4121,0.4152,0.9153,−2.9545 to 0.9153,−1.60,−1.6,0.00573 mg/mL,−5.0,2.42,4.02
"CC(=O)NC[C@H]1CN(c2ccc(N3CCSCC3)c(F)c2)C(=O)O1 [Sutezolid, sutezolid]",1.4312,1.4334,1.1590,,2.2114,1.8680,1.5937,2.0329,1.9661,1.4784,,,,0.237 mg/mL,−3.2,14.85,−0.14
"Nc1nc(-n2cc(C(=O)O)c(=O)c3cc(F)c(N4CC(O)C4)c(Cl)c32)c(F)cc1F [Delafloxacin, delafloxacin]",0.6615,0.9184,0.7390,,2.3174,2.1359,1.7719,1.8351,1.9694,1.6940,,,,0.0699 mg/mL,−3.8,5.62,−1.3

# The next lines start with results.
"RMW [1, 4]","RMW [1, 5]","RMW [1, 6]","RMW values, range on RP2F254 ([1]; RP2F254 plates, range over the three mobile phases)","RMW [1, 7]","RMW [1, 8]","RMW [1, 9]","RMW [1, 10]","RMW [1, 11]","RMW [1, 12]","RMW values, range [1]",Compound,logPexp (Experimental Value) [2],logPexp (Experimental Value) ([2]; listed as ceftazidime),Solubility in Water [3],logS [3],pKa (Strongest Acidic) [3],pKa (Strongest Basic) [3]
2.8557,2.9460,2.2145,,2.9462,3.5637,2.5865,2.7737,2.8227,2.5687,2.2145–3.5637,"CO[C@H]1C[C@@H]2CC[C@@H](C)[C@@](O)(O2)C(=O)C(=O)N2CCCC[C@H]2C(=O)O[C@H]([C@H](C)C[C@@H]2CC[C@@H](OCCO)[C@H](OC)C2)CC(=O)[C@H](C)/C=C(\C)[C@@H](O)[C@@H](OC)C(=O)[C@H](C)C[C@H](C)/C=C/C=C/C=C/1C [Everolimus, everolimus]",,,0.00163 mg/mL,−5.8,9.96,−2.7
2.7480,3.3623,2.1522,,3.1252,3.1105,2.4741,3.2300,2.7377,2.7821,2.1522–3.3623,"CO[C@H]1C[C@@H]2CC[C@@H](C)[C@@](O)(O2)C(=O)C(=O)N2CCCC[C@H]2C(=O)O[C@H]([C@H](C)C[C@@H]2CC[C@H](n3cnnn3)[C@H](OC)C2)CC(=O)[C@H](C)/C=C(\C)[C@@H](O)[C@@H](OC)C(=O)[C@H](C)C[C@H](C)/C=C/C=C/C=C/1C [Zotarolimus, zotarolimus]",,,,,,
